Six molecules from patent US4335249A, “Herbicidal diphenyl ethers, sulfides, sulfoxides and sulfones” (Rohm and Haas Company, priority 1976, dated 1982) can be followed below.

Type in all cases: in vivo
The subject of assay [1] is tomato (Lycopersicon esculentum). The experiment in a line: Preemergence herbicidal activity, tomato. To be noted: Pre, 2 lb/A; for pest or weed control at 2241.7 g/ha: Solanum lycopersicum, pre-emergence, 336 h. The method, then: (§1) Using the procedure described below, compounds of the invention are evaluated for control of several of the following plant species:
(§2) The following est procedure is employed. Seeds of selected crops and weeds are planted in soil in flats. For preemergence tests, the flats are treated with the test compound immediately after the planting. For postemergence tests, the seeds are allowed to germinate, and after two weeks the flats are treated with the test compound. The compound to be evaluated is dissolved in acetone, diluted with water, and sprayed over the flats using a carrier volume equivalent to 50 gallons per acre at the rate of application (pounds per acre, lb/A.) specified in the tables. About two weeks after the application of the test compound, the state of growth of the plants is observed and the phytotoxic effect of the compound is evaluated. Tables III and IV give the average percent control achieved by test compounds in terms of the percent of the plants which are killed by the compounds.

The subject of assay [2] is downybrome (Bromus tectorum). The assay can be described thus: Preemergence herbicidal activity, downybrome. To be noted: Pre, 2 lb/A; for pest or weed control at 2241.7 g/ha: Bromus tectorum, pre-emergence, 336 h. The procedure:
as §1, §2

Assay [3] deals with foxtail (Setaria spp.). The assay can be described thus: Postemergence herbicidal activity, foxtail. To be noted: Post, 2 lb/A; for pest or weed control at 2241.7 g/ha: Setaria, post-emergence, 336 h. The procedure: as §1, §2
Assay [4] relates to tomato (Lycopersicon esculentum). The assay can be described thus: Postemergence herbicidal activity, tomato. To be noted: Post, 2 lb/A; for pest or weed control at 2241.7 g/ha: Solanum lycopersicum, post-emergence, 336 h. The method, then:
as §1, §2

The test system of assay [5] is yellow nutsedge (Cyperus esculentus). The experiment in a line: Postemergence herbicidal activity, yellow nutsedge. To be noted: 2 lb/A; for % control, Nutsedge: Post; for pest or weed control at 2241.7 g/ha: Cyperus, post-emergence, 336 h. The procedure:
as §1, §2

Assay [6] has as its system wild oats (Avena fatua). The experiment in a line: Postemergence herbicidal activity, wild oats. To be noted: Post, 2 lb/A; for pest or weed control at 2241.7 g/ha: Avena fatua, post-emergence, 336 h, read-out: % control, Wild oat. The method, then:
as §1, §2

For assay [7], the system named is velvetleaf (Abutilon theophrasti). The experiment in a line: Postemergence herbicidal activity, velvetleaf. To be noted: 2 lb/A; for % control, Velvetleaf: Post; for pest or weed control at 2241.7 g/ha: Abutilon theophrasti, post-emergence, 336 h. The procedure:
as §1
(§3) The following est procedure is employed. Seeds of selected crops and weeds are planted in soil in flats. For preemergence tests, the flats are treated with the test compound immediately after the planting. For postemergence tests, the seeds are allowed to germinate, and after two weeks the flats are treated with the test compound. The compound to be evaluated is dissolved in acetone, diluted with water, and sprayed over the flats using a carrier volume equivalent to 50 gallons per acre at the rate of application (pounds per acre, lb/A.) specified in the tables.

Assay [8] deals with barnyardgrass (Echinochloa crusgalli). The experiment in a line: Postemergence herbicidal activity, barnyardgrass. To be noted: Post, 2 lb/A; for pest or weed control at 2241.7 g/ha: Echinochloa crus-galli, post-emergence, 336 h. The procedure:
as §1, §3

Assay [9] concerns foxtail (Setaria spp.). The experiment in a line: Preemergence herbicidal activity, foxtail. To be noted: Pre, 2 lb/A; for pest or weed control at 2241.7 g/ha: Setaria, pre-emergence, 336 h. The procedure: as §1, §2
The subject of assay [10] is marigold (Tagetes spp.). The experiment in a line: Preemergence herbicidal activity, marigold. To be noted: 2 lb/A; for % control, Marigold: Pre; for pest or weed control at 2241.7 g/ha: pre-emergence, 336 h. The procedure:
as §1, §2

In assay [11] the test system is barnyardgrass (Echinochloa crusgalli). The assay can be described thus: Preemergence herbicidal activity, barnyardgrass. To be noted: Pre, 2 lb/A; for pest or weed control at 2241.7 g/ha: Echinochloa crus-galli, pre-emergence, 336 h. The procedure: as §1, §3
Assay [12] deals with velvetleaf (Abutilon theophrasti). The experiment in a line: Preemergence herbicidal activity, velvetleaf. To be noted: Pre, 2 lb/A; for pest or weed control at 2241.7 g/ha: Abutilon theophrasti, pre-emergence, 336 h. The method, then: as §1, §2
The test system of assay [13] is morningglory (Ipomoca spp.). The assay can be described thus: Preemergence herbicidal activity, morningglory. To be noted: 2 lb/A; for % control, Morningglory: Pre; for pest or weed control at 2241.7 g/ha: Ipomoea, pre-emergence, 336 h. The method, then: as §1, §2
The subject of assay [14] is downybrome (Bromus tectorum). The assay can be described thus: Postemergence herbicidal activity, downybrome. To be noted: Post, 2 lb/A; for pest or weed control at 2241.7 g/ha: Bromus tectorum, post-emergence, 336 h. The procedure: as §1, §2
Assay [15] deals with wild oats (Avena fatua). The experiment in a line: Preemergence herbicidal activity, wild oats. To be noted: Pre, 2 lb/A; for pest or weed control at 2241.7 g/ha: Avena fatua, pre-emergence, 336 h, read-out: % control, Wild oat. The procedure:
as §1, §2

For assay [16], the system named is cocklebur (Xanthium pensylvanicum). The assay can be described thus: Postemergence herbicidal activity, cocklebur. To be noted: 2 lb/A; for % control, Cocklebur: Post; for pest or weed control at 2241.7 g/ha: Xanthium strumarium, post-emergence, 336 h. The method, then:
as §1, §2

For assay [17], the system named is morningglory (Ipomoca spp.). The assay can be described thus: Postemergence herbicidal activity, morningglory. To be noted: 2 lb/A; for % control, Morningglory: Post; for pest or weed control at 2241.7 g/ha: Ipomoea, post-emergence, 336 h. The procedure: as §1, §2
Assay [18] deals with marigold (Tagetes spp.). The assay can be described thus: Postemergence herbicidal activity, marigold. To be noted: 2 lb/A; for % control, Marigold: Post; for pest or weed control at 2241.7 g/ha: post-emergence, 336 h. The procedure: as §1, §2
For assay [19], the system named is cocklebur (Xanthium pensylvanicum). The assay can be described thus: Preemergence herbicidal activity, cocklebur. To be noted: 2 lb/A; for % control, Cocklebur: Pre; for pest or weed control at 2241.7 g/ha: Xanthium strumarium, pre-emergence, 336 h. The method, then: as §1, §2
Assay [20] concerns yellow nutsedge (Cyperus esculentus). The experiment in a line: Preemergence herbicidal activity, yellow nutsedge. To be noted: 2 lb/A; for % control, Nutsedge: Pre; for pest or weed control at 2241.7 g/ha: Cyperus, pre-emergence, 336 h. The method, then: as §1, §2

Molecules are shown by their SMILES.

In the case of `CC(Oc1ccc(Oc2ccc(C(F)(F)F)cc2Cl)cc1)C(=O)O` (stereo not drawn) [Example 14, Sodium 2-[4-(2-chloro-4-trifluoromethylphenoxy)phenoxy] propionate], the “% control, Tomato” value in [1] and in assay [4] was 0% in each case. Also, the “% control, Downybrome” value came to 50% in assay [2] and 20% in assay [14]. Further, the figures for the “% control, Foxtail” value in [3] and in [9] were 95% and 100%, respectively. The “% control, Nutsedge” value in [5] and in assay [20] was 0% in each case. Also, the “% control, Wild oat” value in assay [6] is recorded as 80%; in [15], 40%. The “% control, Velvetleaf” value in assay [7] and in assay [12] was 0% in each case. Further, the “% control, Barnyardgrass” value in assay [8] and in assay [11] was 100% in each case. The “% control, Marigold” value in [10] and in [18] was 0% throughout. Further, the “% control, Morningglory” value in assay [13] and in [17] was 0% in each case. The “% control, Cocklebur” value in assay [16] and in assay [19] was 0% in each case.

Turning to `CC(Oc1ccc(Oc2ccc(C(F)(F)F)cc2Cl)cc1)C(=O)O` (stereo not drawn) [Example 15], the “% control, Tomato” value in assay [1] and in [4] was 0% each time. Besides, the “% control, Downybrome” value in assay [2] and in assay [14] was 0% in each case. Moreover, the results for the “% control, Foxtail” value in [3] and in assay [9] were 90% and 100%, respectively. The “% control, Nutsedge” value in assay [5] and in assay [20] was 0% throughout. The “% control, Wild oat” value in assay [6] is reported as 20%; in [15] it was 0%. For the same molecule, the “% control, Velvetleaf” value in [7] and in assay [12] was 0% each time. Also, the pest or weed control at 2241.7 g/ha in assay [8] stood at 90%. For the same molecule, the “% control, Marigold” value in assay [10] and in [18] was 0% throughout. Moreover, the “% control, Barnyardgrass” value in [11] was found to be 100%. The “% control, Morningglory” value in [13] came out at 40%; in [17] it was 0%. The “% control, Cocklebur” value in assay [16] and in [19] was 0% throughout.

As for `CC(Oc1ccc(Oc2ccc(C(F)(F)F)cc2Cl)cc1)C(=O)O` (stereo not drawn) [Example 16], the “% control, Tomato” value in assay [1] and in assay [4] was 0% in each case. Moreover, the “% control, Downybrome” value in assay [2] is 70%; in [14] it was 0%. Besides, the figures for the “% control, Foxtail” value in [3] and in assay [9] were 90% and 100%, respectively. In addition, the “% control, Nutsedge” value in [5] and in assay [20] was 0% each time. The “% control, Wild oat” value is on record as 80% in [6] and 70% in [15]. Also, the “% control, Velvetleaf” value in assay [7] and in [12] was 0% throughout. Besides, the “% control, Barnyardgrass” value in assay [8] and in assay [11] was 100% in each case. Moreover, the “% control, Marigold” value in assay [10] and in assay [18] was 0% each time. Further, the “% control, Morningglory” value in [13] and in assay [17] was 0% each time. Also, the “% control, Cocklebur” value in assay [16] and in assay [19] was 0% in each case.

With `CC(Oc1ccc(Oc2ccc(C(F)(F)F)cc2Cl)cc1)C(=O)O` (stereo not drawn) [Example 17], the “% control, Tomato” value in assay [1] and in assay [4] was 0% each time. Also, the “% control, Downybrome” value is 30% in assay [2] and 0% in [14]. Further, the figures for the “% control, Foxtail” value in [3] and in assay [9] were 90% and 100%, respectively. Further, the “% control, Nutsedge” value in assay [5] and in assay [20] was 0% throughout. Also, the figures for the “% control, Wild oat” value in assay [6] and in assay [15] were 80% and 95%, respectively. For the same molecule, the “% control, Velvetleaf” value in assay [7] and in assay [12] was 0% throughout. Besides, the “% control, Barnyardgrass” value in assay [8] worked out at 99%; in assay [11] it was 100%. Further, the “% control, Marigold” value in assay [10] and in assay [18] was 0% in each case. Further, the “% control, Morningglory” value in assay [13] and in assay [17] was 0% each time. For the same molecule, the “% control, Cocklebur” value in assay [16] and in assay [19] was 0% in each case.

For the molecule `CC(Oc1ccc(Oc2ccc(C(F)(F)F)cc2Cl)cc1)C(N)=O` (stereo not drawn) [Example 18], the pest or weed control at 2241.7 g/ha in assay [1] worked out at 0%; in [2], 95%; in assay [3] it was 99%; in [4] it was 0%; in [5], 0%; in [6], 95%. Moreover, the pest or weed control at 2241.7 g/ha in assay [7] is 0%; in [8], 99%; in assay [9], 100%; in assay [10], 0%; in assay [11], 100%; in assay [12], 0%. In addition, the pest or weed control at 2241.7 g/ha in assay [13] was found to be 0%; in assay [14], 40%; in assay [15], 0%; in [16], 0%; in [17], 0%; in assay [18], 0%. Also, the pest or weed control at 2241.7 g/ha in assay [19] and in assay [20] was 0% throughout.

On to `CC(C#N)Oc1ccc(Oc2ccc(C(F)(F)F)cc2Cl)cc1` (stereo not drawn) [Example 19, 2-[4-(2-chloro-4-trifluoromethylphenoxy)phenoxy] propionitrile], for which the pest or weed control at 2241.7 g/ha in assay [1] turned out to be 0%; in [2] it was 20%; in [3], 99%; in assay [4], 0%; in assay [5], 0%; in [6] it was 90%. For the same molecule, the pest or weed control at 2241.7 g/ha was found to be 0% in [7]; 99% in assay [8]; 100% in assay [9]; 0% in assay [10]; 100% in [11]; 0% in [12]. For the same molecule, the pest or weed control at 2241.7 g/ha in assay [13] was determined as 0%; in [14], 30%; in [15], 30%; in assay [16], 0%; in [17] it was 0%; in [18], 0%. The pest or weed control at 2241.7 g/ha in [19] and in assay [20] was 0% throughout.
